The pEC50 is the negative decadic logarithm of the EC50, by convention in mol/L. Higher therefore signals a small EC50.

pEC50: −log10 of the molar value.

EC50 data for 34 compounds are collected here from patent publication US7968570B2, “Isoindolone compounds and their use as metabotropic glutamate receptor potentiators” (AstraZeneca AB, priority 2004, dated 2011).

The test deals with T1, human mGluR2 receptor (Homo sapiens, UniProt Q14416).
T1 construct: expressed in transfected cells
In words: [35S]-GTPγS binding assay of mGluR2 receptor activation. It is filed as biochemical. The note with it: membranes from CHO cells stably expressing human mGluR2; 1 μM glutamate. As for the experimental part:
A [^35S]-GTPγS binding assay was used to functionally assay mGluR2 receptor activation. The allosteric activator activity of compounds at the human mGluR2 receptor were measured using a [^35S]-GTPγS binding assay with membranes prepared from CHO cells which stably express the human mGluR2. The assay is based upon the principle that agonists bind to G-protein coupled receptors to stimulate GDP-GTP exchange at the G-protein. Since [^35S]-GTPγS is a non-hydrolyzable GTP analog, it can be used to provide an index of GDP-GTP exchange and, thus, receptor activation. The GTPγS binding assay therefore provides a quantitative measure of receptor activation.
Membranes were prepared from CHO cells stably transfected with human mGluR2. Membranes (30 μg protein) were incubated with test compound (3 nM to 300 μM) for 15 minutes at room temperature prior to the addition of 1 μM glutamate, and incubated for 30 min at 30° C. in 500 μl assay buffer (20 mM HEPES, 100 mM NaCl, 10 mM MgCl2), containing 30 μM GDP and 0.1 nM [^35S]-GTPγS (1250 Ci/mmol). Reactions were carried out in triplicate in 2 ml polypropylene 96-well plates. Reactions were terminated by vacuum filtration using a Packard 96-well harvester and Unifilter-96, GF/B filter microplates. The filter plates were washed 4×1.5 ml with ice-cold wash buffer (10 mM sodium phosphate buffer, pH 7.4). The filter plates were dried and 35 μl of scintillation fluid (Microscint 20) was added to each well. The amount of radioactivity bound was determined by counting plates on the Packard TopCount. Data was analyzed using GraphPad Prism, and EC50 and Emax values (relative to the maximum glutamate effect) were calculated using non-linear regression.

T1 sequence (Q14416 19-872): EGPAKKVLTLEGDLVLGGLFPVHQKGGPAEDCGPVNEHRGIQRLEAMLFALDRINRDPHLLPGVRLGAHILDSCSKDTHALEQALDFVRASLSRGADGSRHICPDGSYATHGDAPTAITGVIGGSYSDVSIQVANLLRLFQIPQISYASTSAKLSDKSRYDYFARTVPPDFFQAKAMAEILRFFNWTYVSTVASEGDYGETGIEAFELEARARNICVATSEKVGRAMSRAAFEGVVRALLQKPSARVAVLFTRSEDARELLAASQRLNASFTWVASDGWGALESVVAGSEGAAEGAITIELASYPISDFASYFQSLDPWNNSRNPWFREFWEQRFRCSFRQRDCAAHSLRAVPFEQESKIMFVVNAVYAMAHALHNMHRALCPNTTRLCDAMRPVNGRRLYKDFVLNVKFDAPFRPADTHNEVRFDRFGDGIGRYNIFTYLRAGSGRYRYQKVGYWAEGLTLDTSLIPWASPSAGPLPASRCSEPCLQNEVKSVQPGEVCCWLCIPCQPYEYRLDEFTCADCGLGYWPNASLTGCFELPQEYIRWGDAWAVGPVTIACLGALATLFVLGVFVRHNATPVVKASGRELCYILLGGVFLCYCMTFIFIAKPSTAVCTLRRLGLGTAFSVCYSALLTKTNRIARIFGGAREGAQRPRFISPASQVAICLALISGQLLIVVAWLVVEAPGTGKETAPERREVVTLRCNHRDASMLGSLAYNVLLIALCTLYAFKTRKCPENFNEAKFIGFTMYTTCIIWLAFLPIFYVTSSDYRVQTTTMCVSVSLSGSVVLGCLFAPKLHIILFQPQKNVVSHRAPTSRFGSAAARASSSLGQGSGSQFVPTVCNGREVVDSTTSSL

`Cc1cc(-c2cccnc2)cc2c1C(=O)N(Cc1ccc(OC(F)(F)F)cc1)C2` [Example 95, 7-Methyl-5-pyridin-3-yl-2-(trifluoromethoxybenzyl)-2,3-dihydroisoindol-1-one] gave a negative-log EC50 (pEC50) of 7.30. With `Cc1cc(-c2ccncc2)cc2c1C(=O)N(Cc1ccc(OC(F)(F)F)cc1)C2` [Example 96, 7-Methyl-5-pyridin-4-yl-2-(trifluoromethoxybenzyl)-2,3-dihydroisoindol-1-one], the pEC50 was 6.89. Then `Cc1cc(-c2ccncc2)cc2c1C(=O)N(Cc1ccc(Cl)cc1)C2` [Example 97, 2-(4-chlorobenzyl)-7-methyl-5-pyridin-4-yl-2,3-dihydroisoindol-1-one], with 6.52; and `Cc1cc(-c2cccnc2)cc2c1C(=O)N(Cc1ccc(Cl)cc1)C2` [Example 98, 2-(4-chlorobenzyl)-7-methyl-5-pyridin-3-yl-2,3-dihydroisoindol-1-one], with 7.00; and `COc1cc(-c2ccncc2)cc2c1C(=O)N(Cc1ccc(OC(F)(F)F)cc1)C2` [Example 99, 7-Methoxy-5-pyridin-4-yl-2-(4-trifluoromethoxy-benzyl)-2,3-dihydroisoindol-1-one], with 6.40. `COc1cc(-c2cccnc2)cc2c1C(=O)N(Cc1ccc(OC(F)(F)F)cc1)C2` [Example 100, 7-Methoxy-5-pyridin-3-yl-2-(4-trifluoromethoxy-benzyl)-2,3-dihydroisoindol-1-one]: the negative logarithm of the EC50 (pEC50) was 6.66. As to `COc1cc(-c2cccnc2)cc2c1C(=O)N(Cc1ccc(Cl)cc1)C2` [Example 101, 2-(4-Chloro-benzyl)-7-methoxy-5-pyridin-3-yl-2,3-dihydro-isoindol-1-one], the pEC50 was 5.94. As to `O=C1c2c(Cl)cc(-c3ccncc3)cc2CN1Cc1ccc(OC(F)(F)F)cc1` [Example 102, 7-Chloro-5-pyridin-4-yl-2-(4-trifluoromethoxy-benzyl)-2,3-dihydro-isoindol-1-one], the pEC50 is 7.05. Against the preceding compound, the pEC50 is 1.11 log units higher. For the compound `Cc1cc(-c2ccncc2)cc2c1C(=O)N(Cc1ccc(Oc3ccccc3)cc1)C2` [Example 103, 7-Methyl-2-(4-phenoxy-benzyl)-5-pyridin-4-yl-2,3-dihydro-isoindol-1-one], the pEC50 is 7.40.

In turn, `Cc1cc(-c2cccnc2)cc2c1C(=O)N(Cc1ccc(Oc3ccccc3)cc1)C2` [Example 104, 7-Methyl-2-(4-phenoxy-benzyl)-5-pyridin-3-yl-2,3-dihydro-isoindol-1-one] had a pEC50 of 7.30. In turn, `O=C1c2c(Cl)cc(-c3cccnc3)cc2CN1Cc1ccc(OC(F)(F)F)cc1` [Example 105, 7-Chloro-5-pyridin-3-yl-2-(4-trifluoromethoxy-benzyl)-2,3-dihydro-isoindol-1-one] had a pEC50 of 7.30. As to `O=C1c2c(Cl)cc(-c3ccncc3)cc2CN1Cc1ccc(Cl)cc1` [Example 106, 7-Chloro-2-(4-chloro-benzyl)-5-pyridin-4-yl-2,3-dihydro-isoindol-1-one], the pEC50 is 6.89. For the compound `O=C1c2c(Cl)cc(-c3cccnc3)cc2CN1Cc1ccc(Cl)cc1` [Example 107, 7-Chloro-2-(4-chloro-benzyl)-5-pyridin-3-yl-2,3-dihydro-isoindol-1-one], the pEC50 was 6.44. On to `O=Cc1cnccc1-c1cc(Cl)c2c(c1)CN(Cc1ccc(Cl)cc1)C2=O` [Example 108, 4-[7-Chloro-2-(4-chloro-benzyl)-1-oxo-2,3-dihydro-1H-isoindol-5-yl]-pyridine-3-carbaldehyde], for which the pEC50 was 6.34. Then `Cc1ccc(CN2Cc3cc(NC4CCN(C(=O)OC(C)(C)C)C4)ccc3C2=O)cc1` (stereo not shown) [Example 110, 3-[2-(4-Methyl-benzyl)-1-oxo-2,3-dihydro-1H-isoindol-5-ylamino]-pyrrolidine-1-carboxylic acid tert-butyl ester], with 5.60.

For the compound `Cc1cc(N2CCN3CCCC3C2)cc2c1C(=O)N(Cc1ccc(OC(F)(F)F)cc1)C2` (stereo not shown) [Example 111, 5- (Hexahydropyrrolo [1,2-a]pyrazin-2-yl)-7-methyl-2-(4-trifluoromethoxybenzyl)-2,3-dihydroisoindol-1-one], the pEC50 is 6.22. `CCN1CCN(c2cc(C)c3c(c2)CN(Cc2ccc(OC(F)(F)F)cc2)C3=O)CC1` [Example 112, 5-(4-Ethylpiperazin-1-yl)-7-methyl-2-(4-trifluoromethoxy-benzyl)-2,3-dihydroisoindol-1-one] had a negative logarithm of the EC50 (pEC50) of 6.17. `Cc1cc(N2CCCN(C)CC2)cc2c1C(=O)N(Cc1ccc(OC(F)(F)F)cc1)C2` [Example 113, 7-Methyl-5-(4-methyl-[1,4]-diazepan-1-yl)-2-(4-trifluoromethoxy-benzyl)-2,3-dihydroisoindol-1-one] had a negative logarithm of the EC50 (pEC50) of 5.92.

Consider `Cc1cc(N2CCN(C)CC2)cc2c1C(=O)N(Cc1ccc(Oc3ccccc3)cc1)C2` [Example 114, 7-Methyl-5-(4-methylpiperazin-1-yl)-2-(4-phenoxybenzyl)-2,3-dihydroisoindol-1-one], for which the pEC50 is 6.55. As for `Cc1cc(N2CCC(N(C)C)C2)cc2c1C(=O)N(Cc1ccc(OC(F)(F)F)cc1)C2` (stereo not shown) [Example 115, 5-(3-dimethylamino-pyrollidin-1-yl)-7-methyl-2-(4-trifluoromethoxy-benzyl)-2,3-dihydroisoindol-1-one], the pEC50 was 6.52. Turning to `Cc1cc(N2CCN3CCCC3C2)cc2c1C(=O)N(Cc1ccc(Oc3ccccc3)cc1)C2` (stereo not shown) [Example 116, 5-(Hexahydro-pyrrolo[1,2-a]pyrazin-2-yl)-7-methyl-2-(4-phenoxybenzyl)-2,3-dihydroisoindol-1-one], the pEC50 was 6.74. Compound `Cc1cc(N2CCN(C)CC2)cc2c1C(=O)N(Cc1ccc(Cl)cc1)C2` [Example 117, 2-(4-chlorobenzyl)-7-methyl-5-(4-methylpiperazin-1-yl)-2,3-di-hydroisoindol-1-one] showed a pEC50 of 5.84. This pEC50 lies 0.90 log units lower than the previous one.

Turning to `Cc1cc(N2CCN3CCCC3C2)cc2c1C(=O)N(Cc1ccc(Cl)cc1)C2` (stereo not shown) [Example 118, 2-(4-Chlorobenzyl)-5-(hexahydropyrrolo [1,2-a]pyrazin-2-yl)-7-methyl-2,3-dihydroisoindol-1-one], the pEC50 was 6.09.

For the compound `Cc1cc(N2CCC(N(C)C)C2)cc2c1C(=O)N(Cc1ccc(Cl)cc1)C2` (stereo not shown) [Example 119, 2-(4-chlorobenzyl)-5-(3-dimethylamino-pyrollidin-1-yl)-7-methyl-2,3-dihydroisoindol-1-one], the pEC50 is 6.38. Turning to `Cc1cc(N2CCN3CCCCC3C2)cc2c1C(=O)N(Cc1ccc(Cl)cc1)C2` (stereo not shown) [Example 121], the pEC50 was 5.91. `Cc1cc(N2CCCN3CCCCC3C2)cc2c1C(=O)N(Cc1ccc(OC(F)(F)F)cc1)C2` (stereo not shown) [Example 122, 7-Methyl-5-(octahydropyrido [1,2-a][1,4]diazepin-2-yl)-2-(4-trifluoromethoxy-benzyl)-2,3-dihydroisoindol-1-one]: the pEC50 was 5.45.

`Cc1cc(N2CCNCC2)cc2c1C(=O)N(Cc1ccc(OC(F)(F)F)cc1)C2` [Example 123, 7-Methyl-5-piperazin-1-yl-2-(4-trifluoromethoxy-benzyl)-2,3-dihydroisoindol-1-one]: the pEC50 was 5.41. `COc1cc(N2CCN3CCCC3C2)cc2c1C(=O)N(Cc1ccc(OC(F)(F)F)cc1)C2` (stereo not shown) [Example 124, 5- (Hexahydropyrrolo [1,2-a]pyrazin-2-yl)-7-methoxy-2-(4-trifluoromethoxy-benzyl)-2,3-dihydroisoindol-1-one] gave a pEC50 of 5.72. This pEC50 lies 0.31 log units higher than the previous one. In the case of `COc1cc(N2CCC(N(C)C)C2)cc2c1C(=O)N(Cc1ccc(OC(F)(F)F)cc1)C2` (stereo not shown) [Example 126, 5-(3- Dimethylaminopyrrolidin-1-yl)-7-methoxy-2-(4-trifluoromethoxy-benzyl)-2,3-dihydroisoindol-1-one], the pEC50 is 5.60. `CCN1CCN(c2cc3c(c(OC)c2)C(=O)N(Cc2ccc(OC(F)(F)F)cc2)C3)CC1` [Example 127, 5-(4-Ethylpiperazin-1-yl)-7-methoxy-2-(4-trifluoromethoxy-benzyl)-2,3-dihydroisoindol-1-one] had a pEC50 of 5.33.

Compound `COc1cc(N2CCCN(C)CC2)cc2c1C(=O)N(Cc1ccc(OC(F)(F)F)cc1)C2` [Example 128, 7-Methoxy-5-(4-methyl-[1,4]-diazepan-1-yl)-2-(4-triflouoromethoxy-benzyl)-2,3-dihydro-isoindol-1-one] gave a pEC50 of 5.30. `COc1cc(N2CCN3CCCC3C2)cc2c1C(=O)N(Cc1ccc(Cl)cc1)C2` (stereo not shown) [Example 129] gave a pEC50 of 5.20. In turn, `Cc1cc(N2CCC(N(C)C)C2)cc2c1C(=O)N(Cc1ccc(Oc3ccccc3)cc1)C2` (stereo not shown) [Example 130, 5-(3-Dimethylamino-pyrrolidin-1-yl)-7-methyl-2-(4-phenoxy-benzyl)-2,3-dihydro-isoindol-1-one] showed a pEC50 of 7.00. In turn, `CN1CCN(c2cc(Cl)c3c(c2)CN(Cc2ccc(OC(F)(F)F)cc2)C3=O)CC1` [Example 131, 7-Chloro-5-(4-methyl-piperizin-1-yl)-2-(4-trifluoromethoxy-benzyl)-2,3-dihydro-isoindol-1-one] showed a pEC50 of 6.21.
